Results reported in PubChem BioAssay (NCI).
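Each compound was tested at five concentrations against cells in 96-well plates for 48 hours. At the GI50, growth is halved. TGI denotes the concentration required for complete inhibition of growth.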

Key:
Test in all cases: NCI tumour cell line growth inhibition, 48 h
[1] = tested on: HCT-116 colon
[2] = tested on: UO-31 renal
[3] = tested on: K-562 leukemia
[4] = tested on: HOP-92 NSCLC
[5] = tested on: SF-268 CNS
[6] = tested on: U251 CNS
[7] = tested on: TK-10 renal
[8] = tested on: HOP-62 NSCLC
[9] = tested on: UACC-62 melanoma
[10] = tested on: RXF 393 renal

| Structure (SMILES) | TGI [1] | TGI [2] | TGI [3] | TGI [4] | TGI [5] | TGI [6] | TGI [7] | TGI [8] | TGI [9] | TGI [10] | GI50 [1] | GI50 [2] | GI50 [3] | GI50 [4] | GI50 [5] | GI50 [6] | GI50 [7] | GI50 [8] | GI50 [10] |
| --- | --- | --- | --- | --- | --- | --- | --- | --- | --- | --- | --- | --- | --- | --- | --- | --- | --- | --- | --- |
| O=C(Cc1nc2c3c(ccc2[nH]c1=O)C(=O)c1ccccc1C3=O)C(=O)Nc1ccccc1[N+](=O)[O-] | 65.4 µM | > 100 µM | 37 µM | 38.5 µM | 31.5 µM | 32 µM | 44.8 µM | 39.2 µM | 59 µM | – | – | – | – | – | – | – | – | – | – |
| O=C(NC(COC(=O)C(Cc1ccccc1)NC(=O)c1ccccc1)Cc1ccccc1)c1ccccc1 (configuration not stated) | – | > 50 µM | > 50 µM | > 50 µM | > 50 µM | > 50 µM | > 50 µM | > 50 µM | > 50 µM | – | – | – | – | – | – | – | – | – | – |
| COc1cc2c(cc1OC)[C@H]1CN3CCC[C@H]3C=C1c1ccc(OC)c(O)c1-2 | 0.00302 µM | 0.00324 µM | – | 0.000382 µM | – | 1.25 µM | 0.114 µM | – | 0.000267 µM | 0.0437 µM | – | – | – | – | – | – | – | – | – |
| N#CC1=C(c2ccccc2)NNC(c2ccc(Cl)cc2)CC1=O (configuration not stated) | > 100 µM | – | – | > 100 µM | > 100 µM | > 100 µM | > 100 µM | 73.8 µM | – | > 100 µM | – | – | – | – | – | – | – | – | – |
| COc1cc2cc(Oc3ccc(NC(=O)c4cc(C(F)(F)F)cc(C(F)(F)F)c4)cc3)c(C)nc2cc1OC | > 50 µM | > 50 µM | > 50 µM | > 50 µM | > 50 µM | > 50 µM | > 50 µM | > 50 µM | – | > 50 µM | 1.56 µM | 2.6 µM | 2.34 µM | 1.82 µM | > 50 µM | 2.64 µM | 3.82 µM | > 50 µM | 2.93 µM |
| COc1ccc(CC2c3c(cc(OC)c(OC)c3OC)CCN2C)cc1OC (configuration not stated) | > 100 µM | > 100 µM | > 100 µM | – | > 100 µM | > 100 µM | > 100 µM | > 100 µM | – | – | – | – | – | – | – | – | – | – | – |
| C(=Nc1ccc(-c2nc3ccccc3o2)cc1)c1ccco1 | > 100 µM | > 100 µM | – | > 100 µM | – | – | – | – | – | > 100 µM | – | – | – | – | – | – | – | – | – |
| NNC1=N/C(=C\c2ccco2)C(Cl)=N1 | > 100 µM | > 100 µM | 42 µM | > 100 µM | > 100 µM | > 100 µM | > 100 µM | > 100 µM | – | > 100 µM | – | – | – | – | – | – | – | – | – |
| CC12CCC3C(CCC4CC(OC(=O)Cc5ccc(N(CCCl)CCCl)cc5)CCC43C)C1CCC(=O)N2 (configuration not stated) | 28.3 µM | 33.9 µM | 35.3 µM | 30.9 µM | 31.1 µM | 28.4 µM | 35.5 µM | – | – | 28 µM | – | – | – | – | – | – | – | – | – |
| COc1ccc(-c2oc(/C=N/NC(N)=S)c([N+](=O)[O-])c2-c2ccc(OC)c(OC)c2)cc1OC | 41.1 µM | – | – | 79 µM | 58 µM | – | > 100 µM | > 100 µM | 78.5 µM | 45.6 µM | – | – | – | – | – | – | – | – | – |
| CCCCNC(=S)N/N=C/c1cccc(C)n1 | 38.8 µM | 78.5 µM | 44.5 µM | 86.7 µM | > 100 µM | > 100 µM | 97.6 µM | 55.2 µM | 68.3 µM | – | – | – | – | – | – | – | – | – | – |
| NCCCN1CCN(CCCNc2ccc3nnn4c5ccccc5c(=O)c2c34)CC1 | 37.7 µM | 90.7 µM | > 100 µM | 96.6 µM | 75 µM | > 100 µM | > 100 µM | > 100 µM | 33.7 µM | – | – | – | – | – | – | – | – | – | – |
| Nc1nc(N)c(N=O)c(Nc2ccc(Br)cc2)n1 | 37.8 µM | – | > 100 µM | > 100 µM | 57.1 µM | 59 µM | 70.4 µM | 63.9 µM | 19.4 µM | – | – | – | – | – | – | – | – | – | – |
| O=C(Cc1ccccc1)NN1C(=O)/C(=C\c2ccccc2)SC1=Nc1ccccc1 | > 100 µM | > 100 µM | – | > 100 µM | > 100 µM | > 100 µM | > 100 µM | > 100 µM | > 100 µM | > 100 µM | – | – | – | – | – | – | – | – | – |
| CCOC(=O)C1(C(=O)OCC)COS(=O)OC1 | 31.2 µM | > 100 µM | > 100 µM | 28.6 µM | – | > 100 µM | > 100 µM | – | – | 32.6 µM | – | – | – | – | – | – | – | – | – |
| O=C(O)c1cc(-c2ccc3c(O)c(O)ccc3c2)ccc1O | 30.3 µM | > 75 µM | 32.2 µM | – | > 75 µM | 26.1 µM | > 75 µM | > 75 µM | > 75 µM | 47.8 µM | – | – | – | – | – | – | – | – | – |
| O=C(Nc1ccccc1F)c1cc2ccc(O)cc2oc1=Nc1ccccc1F | 4.01 µM | 3.56 µM | 7.64 µM | – | 5.26 µM | 3.63 µM | – | 4.31 µM | 5.9 µM | – | – | – | – | – | – | – | – | – | – |
